Experimental data reported in ChEMBL document CHEMBL4715869, “N-(Pyrimidin-2-yl)-1,2,3,4-tetrahydroisoquinolin-6-amine Derivatives as Selective Janus Kinase 2 Inhibitors for the Treatment of Myeloproliferative Neoplasms” (J Med Chem, 2020).
Values belong to the molecule of their own block, whether it stands above or below them.

Legend:
Homo sapiens = species: Homo sapiens; test: Selectivity index, ratio of IC50 for inhibition of FLT3 ITD mutant in human MOLM13 cells to IC50 for inhibition of JAK2 V617F mutant in human SET-2 cells; type: cell-based
[1] = tested on: Receptor-type tyrosine-protein kinase FLT3 (Homo sapiens), P36888 [UNDEFINED MUTATION]; test: Inhibition of FLT3 ITD mutant in human MOLM13 cells assessed as residual activity at 100 nM relative to control; type: cell-based; settings: MOLM-13
[2] = biological target: Tyrosine-protein kinase JAK1 (Homo sapiens, UniProt P23458); test: Inhibition of human JAK1 (866 to end residues) using GEEPLYWSFPAKKK as substrate after 40 mins by [gamma-33ATP] radiometric assay
Chain of Tyrosine-protein kinase JAK1 (P23458 whole entry): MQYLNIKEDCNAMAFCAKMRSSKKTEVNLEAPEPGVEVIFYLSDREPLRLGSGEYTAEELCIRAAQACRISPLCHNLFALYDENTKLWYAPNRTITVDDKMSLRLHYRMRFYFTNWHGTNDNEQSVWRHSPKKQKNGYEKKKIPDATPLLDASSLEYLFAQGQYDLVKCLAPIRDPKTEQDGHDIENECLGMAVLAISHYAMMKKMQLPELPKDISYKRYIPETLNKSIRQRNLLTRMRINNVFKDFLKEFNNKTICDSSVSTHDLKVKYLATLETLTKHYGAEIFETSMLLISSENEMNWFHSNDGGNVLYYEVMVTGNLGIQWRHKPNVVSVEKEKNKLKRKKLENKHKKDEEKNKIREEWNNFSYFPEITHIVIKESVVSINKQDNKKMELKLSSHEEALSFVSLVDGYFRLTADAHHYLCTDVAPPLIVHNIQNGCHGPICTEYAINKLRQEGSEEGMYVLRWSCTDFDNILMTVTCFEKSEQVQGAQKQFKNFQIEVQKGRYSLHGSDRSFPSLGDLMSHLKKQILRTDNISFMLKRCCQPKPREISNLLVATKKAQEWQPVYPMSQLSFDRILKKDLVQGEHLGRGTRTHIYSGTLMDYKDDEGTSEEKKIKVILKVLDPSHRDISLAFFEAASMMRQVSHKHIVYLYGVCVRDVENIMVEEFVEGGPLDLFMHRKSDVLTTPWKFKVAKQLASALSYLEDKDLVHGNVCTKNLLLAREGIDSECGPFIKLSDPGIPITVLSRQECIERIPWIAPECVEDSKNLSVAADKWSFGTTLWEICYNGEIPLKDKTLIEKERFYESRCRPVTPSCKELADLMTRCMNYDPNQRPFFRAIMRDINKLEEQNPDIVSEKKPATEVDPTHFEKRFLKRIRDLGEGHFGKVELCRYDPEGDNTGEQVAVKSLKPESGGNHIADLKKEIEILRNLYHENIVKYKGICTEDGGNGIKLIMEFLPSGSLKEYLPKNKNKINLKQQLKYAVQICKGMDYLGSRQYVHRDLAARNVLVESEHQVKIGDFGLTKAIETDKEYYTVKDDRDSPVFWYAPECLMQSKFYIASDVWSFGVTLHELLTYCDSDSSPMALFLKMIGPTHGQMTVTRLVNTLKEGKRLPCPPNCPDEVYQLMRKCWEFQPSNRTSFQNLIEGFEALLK

[3] = biological target: Tyrosine-protein kinase JAK2 (Homo sapiens, UniProt O60674); test: Inhibition of recombinant human JAK2 (808 to end residues) KTFCGTPEYLAPEVRREPRILSEEEQEMFRDFDYIADWC as substrate measured after 40 mins in presence of [gamm33P]ATP by scintillation counting method
Chain of Tyrosine-protein kinase JAK2 (O60674 whole entry): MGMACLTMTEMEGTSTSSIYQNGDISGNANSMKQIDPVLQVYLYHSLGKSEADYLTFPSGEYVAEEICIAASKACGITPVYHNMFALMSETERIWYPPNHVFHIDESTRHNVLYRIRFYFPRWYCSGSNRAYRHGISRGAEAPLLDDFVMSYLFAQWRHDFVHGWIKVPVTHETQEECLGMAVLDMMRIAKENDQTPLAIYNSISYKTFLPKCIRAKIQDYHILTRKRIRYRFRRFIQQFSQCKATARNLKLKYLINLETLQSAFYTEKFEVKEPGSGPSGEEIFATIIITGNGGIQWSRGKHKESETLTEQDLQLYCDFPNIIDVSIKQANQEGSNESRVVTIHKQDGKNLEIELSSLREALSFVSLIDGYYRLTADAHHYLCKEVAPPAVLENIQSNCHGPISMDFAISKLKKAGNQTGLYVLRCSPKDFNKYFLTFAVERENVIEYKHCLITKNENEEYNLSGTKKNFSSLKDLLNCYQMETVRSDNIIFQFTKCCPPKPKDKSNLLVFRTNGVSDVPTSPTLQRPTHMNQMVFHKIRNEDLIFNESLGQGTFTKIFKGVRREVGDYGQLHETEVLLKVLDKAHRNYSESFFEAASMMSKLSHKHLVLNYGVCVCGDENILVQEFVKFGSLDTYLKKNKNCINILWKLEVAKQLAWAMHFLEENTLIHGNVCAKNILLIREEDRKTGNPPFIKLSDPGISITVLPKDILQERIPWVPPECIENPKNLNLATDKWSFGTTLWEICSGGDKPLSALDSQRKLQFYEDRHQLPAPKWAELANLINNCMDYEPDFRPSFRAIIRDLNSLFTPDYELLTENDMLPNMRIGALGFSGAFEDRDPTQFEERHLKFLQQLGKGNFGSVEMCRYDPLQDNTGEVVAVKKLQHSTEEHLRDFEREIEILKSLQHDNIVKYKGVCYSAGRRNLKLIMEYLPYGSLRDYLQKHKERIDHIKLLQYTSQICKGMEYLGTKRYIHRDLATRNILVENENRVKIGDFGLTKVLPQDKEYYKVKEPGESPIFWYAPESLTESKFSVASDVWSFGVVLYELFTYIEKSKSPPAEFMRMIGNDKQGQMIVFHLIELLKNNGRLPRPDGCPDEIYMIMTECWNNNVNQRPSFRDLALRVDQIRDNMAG

[4] = biological target: T1, Tyrosine-protein kinase JAK3 (Homo sapiens, UniProt P52333); test: Inhibition of recombinant human JAK3 (781 to end residues) using GGEEEEYFELVKKKK as substrate measured after 40 mins in presence of [gamm33P]ATP by scintillation counting method
T1 sequence (P52333 whole entry): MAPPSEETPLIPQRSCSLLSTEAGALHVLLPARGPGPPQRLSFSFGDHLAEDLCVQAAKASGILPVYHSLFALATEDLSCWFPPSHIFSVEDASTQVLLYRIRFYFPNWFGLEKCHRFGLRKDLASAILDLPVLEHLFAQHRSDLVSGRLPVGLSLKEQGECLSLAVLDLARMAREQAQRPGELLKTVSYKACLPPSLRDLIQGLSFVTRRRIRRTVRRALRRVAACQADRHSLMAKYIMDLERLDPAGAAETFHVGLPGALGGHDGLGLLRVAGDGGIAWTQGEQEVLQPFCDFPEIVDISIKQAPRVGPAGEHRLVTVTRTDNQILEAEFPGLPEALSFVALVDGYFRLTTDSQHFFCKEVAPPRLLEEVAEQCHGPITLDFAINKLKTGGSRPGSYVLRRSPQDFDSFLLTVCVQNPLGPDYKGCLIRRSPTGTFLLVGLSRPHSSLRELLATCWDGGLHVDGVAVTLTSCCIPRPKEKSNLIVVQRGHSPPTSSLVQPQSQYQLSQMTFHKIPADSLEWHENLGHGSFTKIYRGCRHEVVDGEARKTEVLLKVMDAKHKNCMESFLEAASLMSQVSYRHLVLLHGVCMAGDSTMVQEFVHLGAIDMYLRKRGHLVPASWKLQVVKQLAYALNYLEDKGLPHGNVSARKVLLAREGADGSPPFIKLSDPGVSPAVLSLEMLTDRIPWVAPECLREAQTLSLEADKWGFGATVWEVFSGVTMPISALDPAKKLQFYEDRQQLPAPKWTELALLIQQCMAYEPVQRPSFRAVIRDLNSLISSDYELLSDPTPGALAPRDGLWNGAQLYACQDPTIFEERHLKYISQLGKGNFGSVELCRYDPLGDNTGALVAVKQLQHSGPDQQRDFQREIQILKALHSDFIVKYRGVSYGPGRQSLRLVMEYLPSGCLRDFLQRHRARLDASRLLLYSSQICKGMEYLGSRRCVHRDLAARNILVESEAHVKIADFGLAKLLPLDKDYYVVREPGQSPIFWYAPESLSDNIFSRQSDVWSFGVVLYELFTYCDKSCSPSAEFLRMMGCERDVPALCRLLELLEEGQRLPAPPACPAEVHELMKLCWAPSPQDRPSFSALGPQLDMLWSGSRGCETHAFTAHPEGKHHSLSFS

[5] = biological target: Non-receptor tyrosine-protein kinase TYK2 (Homo sapiens, UniProt P29597); test: Inhibition of recombinant human TYK2 (875 to end residues) using GGMEDIYFEFMGGKKK as substrate incubated for 40 mins in presence of [gamma33P]ATP by scintillation counting based radiometry assay
Chain of Non-receptor tyrosine-protein kinase TYK2 (P29597 whole entry): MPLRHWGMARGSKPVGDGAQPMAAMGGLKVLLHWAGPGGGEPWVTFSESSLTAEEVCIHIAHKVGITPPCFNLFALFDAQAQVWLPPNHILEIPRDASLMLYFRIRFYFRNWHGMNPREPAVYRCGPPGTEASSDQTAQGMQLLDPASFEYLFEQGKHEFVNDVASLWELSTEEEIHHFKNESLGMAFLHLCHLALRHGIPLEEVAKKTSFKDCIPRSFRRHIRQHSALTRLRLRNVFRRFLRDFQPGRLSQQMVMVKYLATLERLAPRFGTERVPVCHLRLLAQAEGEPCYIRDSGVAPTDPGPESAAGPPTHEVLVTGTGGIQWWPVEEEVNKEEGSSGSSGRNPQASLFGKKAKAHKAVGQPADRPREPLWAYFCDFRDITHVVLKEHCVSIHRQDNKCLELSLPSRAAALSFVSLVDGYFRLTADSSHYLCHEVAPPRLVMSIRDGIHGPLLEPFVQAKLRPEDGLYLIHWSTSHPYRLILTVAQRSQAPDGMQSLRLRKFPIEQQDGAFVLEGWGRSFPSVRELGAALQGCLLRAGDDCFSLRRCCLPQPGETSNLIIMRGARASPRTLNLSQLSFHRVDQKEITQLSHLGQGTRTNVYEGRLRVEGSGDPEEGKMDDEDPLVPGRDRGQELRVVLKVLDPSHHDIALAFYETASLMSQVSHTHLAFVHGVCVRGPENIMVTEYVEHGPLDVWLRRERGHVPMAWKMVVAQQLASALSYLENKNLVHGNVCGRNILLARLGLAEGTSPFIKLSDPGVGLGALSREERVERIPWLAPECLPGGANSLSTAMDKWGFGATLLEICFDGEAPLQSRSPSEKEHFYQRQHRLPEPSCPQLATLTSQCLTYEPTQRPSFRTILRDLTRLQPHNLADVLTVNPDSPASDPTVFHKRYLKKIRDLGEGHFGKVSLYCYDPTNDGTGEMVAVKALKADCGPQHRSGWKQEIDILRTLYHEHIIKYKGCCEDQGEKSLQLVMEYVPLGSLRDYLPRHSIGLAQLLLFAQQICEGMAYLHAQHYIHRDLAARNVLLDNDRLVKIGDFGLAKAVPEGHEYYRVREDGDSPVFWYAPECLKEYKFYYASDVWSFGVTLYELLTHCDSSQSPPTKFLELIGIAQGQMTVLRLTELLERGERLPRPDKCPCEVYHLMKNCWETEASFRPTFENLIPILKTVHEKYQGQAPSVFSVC

[6] = biological target: Receptor-type tyrosine-protein kinase FLT3 (Homo sapiens, UniProt P36888, D835Y); test: Inhibition of recombinant human FLT3 D835Y mutant (564 to end residues) using EAIYAAPFAKKK as substrate at 40 mins in presence of [gamma-33ATP] by scintillation counting based radiometry assay
[7] = Selectivity index, ratio of IC50 for inhibition of human JAK1 (866 to end residues) to IC50 for inhibition of recombinant human JAK2 (808 to end residues)
[8] = Selectivity index, ratio of IC50 for inhibition of recombinant human JAK3 (781 to end residues) to IC50 for inhibition of recombinant human JAK2 (808 to end residues)
[9] = Selectivity index, ratio of IC50 for inhibition of recombinant human TYK2 (875 to end residues) to IC50 for inhibition of recombinant human JAK2 (808 to end residues)
[10] = Selectivity index, ratio of IC50 for inhibition of recombinant human FLT3 D835Y mutant (564 to end residues) to IC50 for inhibition of recombinant human JAK2 (808 to end residues)
Vero = test: Cytotoxicity against African green monkey Vero cells assessed as reduction in cell viability incubated for 72 hrs by MTT assay; type: cell-based; settings: Chlorocebus sabaeus
[11] = Cytotoxicity against rat H9c2(2-1) cells assessed as reduction in cell viability incubated for 72 hrs by MTT assay; type: cell-based; settings: H9c2, 72 h
L02 = test: Cytotoxicity against human L02 cells assessed as reduction in cell viability incubated for 72 hrs by MTT assay; type: cell-based; settings: L02, 72 h

Activity [1]: 79%
SMILES: Cc1cnc(Nc2ccc3c(c2)CCN3CCO)nc1-c1cnn(C(C)C)c1
Ratio IC50 (Homo sapiens): 0.54

Activity [1]: 78%
SMILES: Cc1cnc(Nc2ccc3c(c2)CCN(C/C=C/C(=O)O)C3)nc1-c1cnn(C(C)C)c1
Ratio IC50 (Homo sapiens): 2.5

Activity [1]: 63%
SMILES: Cc1cnc(Nc2ccc3c(c2)CCN(CCCCCO)C3)nc1-c1cnn(C(C)C)c1

Activity [1]: 99%
SMILES: Cc1cnc(Nc2ccc3c(c2)CCN(C(=O)Nc2cccc(Cl)c2)C3)nc1-c1cnn(C(C)C)c1
Ratio IC50 (Homo sapiens): 0.6

Activity [1]: 88%
SMILES: Cc1cnc(Nc2ccc3c(n2)CCN(CCCO)C3)nc1-c1cnn(C(C)C)c1
Ratio IC50 (Homo sapiens): 1.1

SMILES: Cc1cnc(Nc2ccc3c(c2)CCN(C/C=C/C(=O)NC(C)(C)C)C3)nc1-c1cnn(C(C)C)c1
Ratio IC50 (Homo sapiens): 1.7

Activity [1]: 47%
IC50 [2]: 30 nM
IC50 [3]: 2 nM
IC50 [4]: 89 nM
IC50 [5]: 52 nM
IC50 [6]: 16 nM
Ratio IC50 [7]: 15
Ratio IC50 [8]: 44.5
Ratio IC50 [9]: 26
Ratio IC50 [10]: 8
SMILES: Cc1cnc(Nc2ccc3c(c2)CN(C(=O)/C=C/C(=O)c2ccccc2)CC3)nc1-c1cnn(C(C)C)c1
Ratio IC50 (Homo sapiens): 12.5

Activity [1]: 39%
SMILES: CC(C)n1cc(-c2nc(Nc3ccc4c(c3)CCN(C(=O)CO)C4)ncc2F)cn1
Ratio IC50 (Homo sapiens): 0.79

Activity [1]: 56%
SMILES: Cc1cnc(Nc2ccc3c(c2)CCN(CCCCO)C3)nc1-c1cnn(C(C)C)c1
Ratio IC50 (Homo sapiens): 3.3

Activity [1]: 66%
SMILES: Cc1cnc(Nc2ccc3c(c2)CCN(CCO)C3)nc1-c1cnn(C(C)C)c1
Ratio IC50 (Homo sapiens): 3.9

Activity [1]: 40%
SMILES: CCOCCN1CCc2cc(Nc3ncc(C)c(-c4cnn(C(C)C)c4)n3)ccc2C1
Ratio IC50 (Homo sapiens): 1.7

Activity [1]: 59%
IC50 [4]: 28 nM
IC50 [5]: 30 nM
IC50 [6]: 18 nM
SMILES: Cc1ccc(C(=O)/C=C/C(=O)N2CCc3ccc(Nc4ncc(C)c(-c5cnn(C(C)C)c5)n4)cc3C2)cc1
IC50 (Vero): 2470 nM
IC50 [11]: 1690 nM
IC50 (L02): 2030 nM

SMILES: CCNC(=O)N1CCc2cc(Nc3ncc(C)c(-c4cnn(C(C)C)c4)n3)ccc2C1
Ratio IC50 (Homo sapiens): 0.45

Activity [1]: 41%
IC50 [2]: 47 nM
IC50 [3]: 10 nM
IC50 [4]: 120 nM
IC50 [5]: 79 nM
IC50 [6]: 34 nM
Ratio IC50 [7]: 4.7
Ratio IC50 [8]: 12
Ratio IC50 [9]: 7.9
Ratio IC50 [10]: 3.4
SMILES: Cc1cnc(Nc2ccc3c(c2)CCN(C(=O)/C=C/C(=O)c2ccccc2)C3)nc1-c1cnn(C(C)C)c1
Ratio IC50 (Homo sapiens): 8.8

SMILES: Cc1cnc(Nc2ccc3c(c2)CCN(C(=O)CCCN(C)C)C3)nc1-c1cnn(C(C)C)c1
Ratio IC50 (Homo sapiens): 1.5

SMILES: CCCNC(=O)N1CCc2cc(Nc3ncc(C)c(-c4cnn(C(C)C)c4)n3)ccc2C1
Ratio IC50 (Homo sapiens): 1.2

Activity [1]: 67%
SMILES: Cc1cnc(Nc2ccc3c(c2)CN(CCO)C3)nc1-c1cnn(C(C)C)c1

Activity [1]: 35%
SMILES: Cc1cnc(Nc2ccc3c(c2)CCN(CCC#N)C3)nc1-c1cnn(C(C)C)c1
Ratio IC50 (Homo sapiens): 1.2

Activity [1]: 39%
SMILES: CC(C)n1cc(-c2nc(Nc3ccc4c(c3)CCN(CCCCO)C4)ncc2F)cn1
Ratio IC50 (Homo sapiens): 0.75

Activity [1]: 55%
IC50 [2]: 60 nM
IC50 [3]: 3 nM
IC50 [4]: 50 nM
IC50 [5]: 100 nM
IC50 [6]: 30 nM
Ratio IC50 [7]: 20
Ratio IC50 [8]: 16.6
Ratio IC50 [9]: 33.3
Ratio IC50 [10]: 10
SMILES: Cc1ccc(C(=O)/C=C/C(=O)N2CCc3cc(Nc4ncc(C)c(-c5cnn(C(C)C)c5)n4)ccc3C2)cc1
Ratio IC50 (Homo sapiens): 51.6
IC50 (Vero): 1050 nM
IC50 [11]: 1430 nM
IC50 (L02): 2660 nM

SMILES: Cc1ccc(C(=O)CCC(=O)N2CCc3cc(Nc4ncc(C)c(-c5cnn(C(C)C)c5)n4)ccc3C2)cc1
Ratio IC50 (Homo sapiens): 1.7

Activity [1]: 44%
SMILES: CC(C)n1cc(-c2nc(Nc3ccc4c(c3)CCN(CCCO)C4)ncc2F)cn1
Ratio IC50 (Homo sapiens): 1.4

Activity [1]: 52%
IC50 [2]: 91 nM
IC50 [3]: 9 nM
IC50 [4]: 147 nM
IC50 [5]: 45 nM
IC50 [6]: 23 nM
Ratio IC50 [7]: 10
Ratio IC50 [8]: 16
Ratio IC50 [9]: 5
Ratio IC50 [10]: 2.5
SMILES: Cc1cnc(Nc2ccc3c(c2)CN(C(=O)/C=C/CN(C)C)CC3)nc1-c1cnn(C(C)C)c1
Ratio IC50 (Homo sapiens): 29.8

Activity [1]: 53%
IC50 [2]: 26 nM
IC50 [3]: 2 nM
IC50 [4]: 77 nM
IC50 [5]: 88 nM
IC50 [6]: 23 nM
Ratio IC50 [7]: 13
Ratio IC50 [8]: 38.5
Ratio IC50 [9]: 44
Ratio IC50 [10]: 11.5
SMILES: COC(=O)/C=C/CN1CCc2cc(Nc3ncc(C)c(-c4cnn(C(C)C)c4)n3)ccc2C1
Ratio IC50 (Homo sapiens): 36.3
IC50 (Vero): 2330 nM
IC50 [11]: 2890 nM
IC50 (L02): 1530 nM

Activity [1]: 85%
SMILES: CC#CCN1CCc2cc(Nc3ncc(C)c(-c4cnn(C(C)C)c4)n3)ccc2C1
Ratio IC50 (Homo sapiens): 2

Activity [1]: 57%
SMILES: CCCCN1CCc2cc(Nc3ncc(C)c(-c4cnn(C(C)C)c4)n3)ccc2C1
Ratio IC50 (Homo sapiens): 1.3

SMILES: Cc1cnc(Nc2cc3c(cc2F)CN(CCO)CC3)nc1-c1cnn(C(C)C)c1
Ratio IC50 (Homo sapiens): > 1.2

SMILES: Cc1cnc(Nc2ccc3c(c2)CCN(C/C=C/C(=O)NCCN2CCCCC2)C3)nc1-c1cnn(C(C)C)c1
Ratio IC50 (Homo sapiens): 3.8

Activity [1]: 51%
SMILES: Cc1cnc(Nc2ccc3c(c2)CN(CC#N)CC3)nc1-c1cnn(C(C)C)c1
Ratio IC50 (Homo sapiens): 4.5

Activity [1]: 50%
IC50 [2]: 43 nM
IC50 [3]: 7 nM
IC50 [4]: 54 nM
IC50 [5]: 56 nM
IC50 [6]: 108 nM
Ratio IC50 [7]: 6.1
Ratio IC50 [8]: 7.7
Ratio IC50 [9]: 8
Ratio IC50 [10]: 15.4
SMILES: Cc1cnc(Nc2ccc3c(c2)CCN(CC#N)C3)nc1-c1cnn(C(C)C)c1
Ratio IC50 (Homo sapiens): 8.8

Activity [1]: 66%
SMILES: CCN(CC)C(=O)/C=C/CN1CCc2cc(Nc3ncc(C)c(-c4cnn(C(C)C)c4)n3)ccc2C1
Ratio IC50 (Homo sapiens): 2

Activity [1]: 43%
SMILES: COC(=O)/C=C/CN1CCc2ccc(Nc3ncc(C)c(-c4cnn(C(C)C)c4)n3)cc2C1
Ratio IC50 (Homo sapiens): 6

Activity [1]: 62%
SMILES: Cc1cnc(Nc2ccc3c(c2)CCN(CCCO)C3)nc1-c1cnn(C(C)C)c1
Ratio IC50 (Homo sapiens): 3.4

SMILES: COC(=O)CCCN1CCc2cc(Nc3ncc(C)c(-c4cnn(C(C)C)c4)n3)ccc2C1
Ratio IC50 (Homo sapiens): 1.2

Activity [1]: 43%
SMILES: CC(C)n1cc(-c2nc(Nc3ccc4c(c3)CCN(CCO)C4)ncc2F)cn1
Ratio IC50 (Homo sapiens): 0.84

Activity [1]: 42%
SMILES: CC(C)n1cc(-c2nc(Nc3ccc4c(c3)CCN(CCCCCO)C4)ncc2F)cn1
Ratio IC50 (Homo sapiens): 0.72

Activity [1]: 67%
SMILES: C=CCN1CCc2cc(Nc3ncc(C)c(-c4cnn(C(C)C)c4)n3)ccc2C1
Ratio IC50 (Homo sapiens): 3

Activity [1]: 79%
SMILES: C#CCN1CCc2cc(Nc3ncc(C)c(-c4cnn(C(C)C)c4)n3)ccc2C1
